Assays:
[1] = tested on: ragweed; experiment: Test C preemergence; assay type: in vivo, Ambrosia artemisiifolia; settings: 0 to 100 scale (0 no effect, 100 complete control); for Ragweed plant response rating: preemergence
Procedure, shortened: (§1)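 Seeds sown in loam soil–sand blend received a directed preemergence soil spray of test chemical in non-phytotoxic solvent with surfactant; postemergence plants (2–10 cm, one- to two-leaf stage) were sprayed with the same formulation. Greenhouse-held 10 days, then visually rated for injury versus untreated controls, 0 (no effect) to 100 (complete control).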

[2] = tested on: green foxtail; experiment: Test C postemergence; assay type: in vivo, Setaria viridis; settings: 10 days
Procedure, shortened: as §1

[3] = tested on: wheat; experiment: Test C postemergence; assay type: in vivo, Triticum aestivum; settings: 10 days
Procedure, shortened: as §1

[4] = tested on: blackgrass; experiment: Test C preemergence; assay type: in vivo, Alopecurus myosuroides; settings: 0 to 100 scale (0 no effect, 100 complete control); for Blackgrass plant response rating: preemergence
Procedure, shortened: as §1

[5] = tested on: oat, wild; experiment: Test C postemergence; assay type: in vivo, Avena fatua; settings: 10 days
Procedure, shortened: as §1

[6] = tested on: corn; experiment: Test C postemergence; assay type: in vivo, Zea mays; settings: 10 days
Procedure, shortened: as §1

[7] = tested on: oat, wild; experiment: Test C preemergence; assay type: in vivo, Avena fatua; settings: 0 to 100 scale (0 no effect, 100 complete control); for Oat, Wild plant response rating: preemergence
Procedure, shortened: as §1

[8] = tested on: barnyardgrass; experiment: Test D flooded paddy test; assay type: in vivo, Echinochloa crus-galli; settings: 250 g ai/ha, applied to paddy water, visual rating after 13 to 14 days, scale 0 to 100 (0 no effect, 100 complete control)
Procedure, shortened: (§2)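 Plants at the 2-leaf stage were grown in pots flooded to 3 cm, and compound was applied directly into the paddy water, with depth kept throughout. After 13–14 days in a greenhouse, injury was rated visually against untreated controls on a 0–100 scale (100 = complete control); a dash means not tested.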

[9] = tested on: kochia; experiment: Test C postemergence; assay type: in vivo, Bassia scoparia; settings: 10 days
Procedure, shortened: as §1

[10] = tested on: ryegrass, Italian; experiment: Test C preemergence; assay type: in vivo, Lolium multiflorum; settings: 0 to 100 scale (0 no effect, 100 complete control); for Ryegrass, Italian plant response rating: preemergence
Procedure, shortened: as §1

[11] = tested on: galium; experiment: Test C postemergence; assay type: in vivo, Galium aparine; settings: 10 days
Procedure, shortened: as §1

[12] = tested on: ryegrass, Italian; experiment: Test C postemergence; assay type: in vivo, Lolium multiflorum; settings: 10 days
Procedure, shortened: as §1

[13] = tested on: barnyardgrass; experiment: Test C postemergence; assay type: in vivo, Echinochloa crusgalli; settings: 10 days
Procedure, shortened: as §1

[14] = tested on: soybean; experiment: Test C postemergence; assay type: in vivo, Glycine max; settings: 10 days
Procedure, shortened: as §1

[15] = tested on: green foxtail; experiment: Test C preemergence; assay type: in vivo, Setaria viridis; settings: 0 to 100 scale (0 no effect, 100 complete control); for Foxtail, Green plant response rating: preemergence
Procedure, shortened: as §1

[16] = tested on: rice; experiment: Test D flooded paddy test; assay type: in vivo, Oryza sativa; settings: 250 g ai/ha, applied to paddy water, visual rating after 13 to 14 days, scale 0 to 100 (0 no effect, 100 complete control)
Procedure, shortened: as §2

[17] = tested on: sedge, umbrella; experiment: Test D flooded paddy test; assay type: in vivo, Cyperus difformis; settings: 250 g ai/ha, applied to paddy water, visual rating after 13 to 14 days, scale 0 to 100 (0 no effect, 100 complete control)
Procedure, shortened: as §2

[18] = tested on: pigweed, palmer; experiment: Test C preemergence; assay type: in vivo, Amaranthus palmeri; settings: 0 to 100 scale (0 no effect, 100 complete control); for Pigweed, Palmer plant response rating: preemergence
Procedure, shortened: as §1

[19] = tested on: soybean; experiment: Test C preemergence; assay type: in vivo, Glycine max; settings: 0 to 100 scale (0 no effect, 100 complete control); for Soybean plant response rating: preemergence
Procedure, shortened: as §1

[20] = tested on: horseweed; experiment: Test C postemergence; assay type: in vivo, Erigeron canadensis; settings: 10 days
Procedure, shortened: as §1

[21] = tested on: pigweed, palmer; experiment: Test C postemergence; assay type: in vivo, Amaranthus palmeri; settings: 10 days
Procedure, shortened: as §1

[22] = tested on: barnyardgrass; experiment: Test C preemergence; assay type: in vivo, Echinochloa crusgalli; settings: 0 to 100 scale (0 no effect, 100 complete control); for Barnyardgrass plant response rating: preemergence
Procedure, shortened: as §1

[23] = tested on: wheat; experiment: Test C preemergence; assay type: in vivo, Triticum aestivum; settings: 0 to 100 scale (0 no effect, 100 complete control); for Wheat plant response rating: preemergence
Procedure, shortened: as §1

[24] = tested on: ragweed; experiment: Test C postemergence; assay type: in vivo, Ambrosia artemisiifolia; settings: 10 days
Procedure, shortened: as §1

[25] = tested on: corn; experiment: Test C preemergence; assay type: in vivo, Zea mays; settings: 0 to 100 scale (0 no effect, 100 complete control); for Corn plant response rating: preemergence
Procedure, shortened: as §1

[26] = tested on: kochia; experiment: Test C preemergence; assay type: in vivo, Bassia scoparia; settings: 0 to 100 scale (0 no effect, 100 complete control); for Kochia plant response rating: preemergence
Procedure, shortened: as §1

[27] = tested on: ducksalad; experiment: Test D flooded paddy test; assay type: in vivo, Heteranthera limosa; settings: 250 g ai/ha, applied to paddy water, visual rating after 13 to 14 days, scale 0 to 100 (0 no effect, 100 complete control)
Procedure, shortened: as §2

[28] = tested on: blackgrass; experiment: Test C postemergence; assay type: in vivo, Alopecurus myosuroides; settings: 10 days
Procedure, shortened: as §1

[29] = 500 g ai/ha, postemergence, 0 to 100 scale (0 no effect, 100 complete control)
[30] = Postemergence, 125 g ai/ha, 0 to 100 scale (0 no effect, 100 complete control)
[31] = Preemergence, 500 g ai/ha, visual rating after 10 days
[32] = 125 g ai/ha, postemergence, 0 to 100 scale, 0 no effect, 100 complete control
[33] = Postemergence, 500 g ai/ha, visual 0 to 100 scale (0 no effect, 100 complete control)

COC[C@H]1CN(C(=O)c2cc(-n3cnc(C(C)C)n3)ccc2OC)c2cccc(Cl)c2O1 [Compound 314]
Ragweed plant response rating ([1]; 500 g ai/ha): 70 | Ragweed plant response rating ([1]; Test C, 125 g ai/ha): 50 | Plant response rating, Foxtail, Green [2, 29]: 90 | Plant response rating, Foxtail, Green [2, 30]: 60 | Plant response rating, Wheat [3, 29]: 30 | Plant response rating, Wheat [3, 30]: 20 | Blackgrass plant response rating ([4]; 500 g ai/ha): 70 | Blackgrass plant response rating ([4]; Test C, 125 g ai/ha): 20 | Plant response rating, Oat, Wild [5, 29]: 40 | Plant response rating, Oat, Wild [5, 30]: 40 | Plant response rating, Corn [6, 29]: 90 | Plant response rating, Corn [6, 30]: 80 | Oat, Wild plant response rating ([7]; 500 g ai/ha): 80 | Oat, Wild plant response rating ([7]; Test C, 125 g ai/ha): 60 | Plant response rating, Barnyardgrass (Flood) [8]: 15 | Plant response rating, Kochia [9, 29]: 90 | Plant response rating, Kochia [9, 30]: 90 | Ryegrass, Italian plant response rating ([10]; 500 g ai/ha): 100 | Ryegrass, Italian plant response rating ([10]; Test C, 125 g ai/ha): 100 | Plant response rating, Galium [11, 29]: 100 | Plant response rating, Galium [11, 30]: 100 | Plant response rating, Ryegrass, Italian [12, 29]: 90 | Plant response rating, Ryegrass, Italian [12, 30]: 80 | Plant response rating, Barnyardgrass [13, 29]: 60 | Plant response rating, Barnyardgrass [13, 30]: 30 | Plant response rating, Soybean [14, 29]: 100 | Plant response rating, Soybean [14, 30]: 100 | Foxtail, Green plant response rating ([15]; 500 g ai/ha): 100 | Foxtail, Green plant response rating ([15]; Test C, 125 g ai/ha): 100 | Plant response rating, Rice (Flood) [16]: 15 | Plant response rating, Sedge, Umbrella (Flood) [17]: 100 | Pigweed, Palmer plant response rating ([18]; 500 g ai/ha): 100 | Pigweed, Palmer plant response rating ([18]; Test C, 125 g ai/ha): 100 | Soybean plant response rating ([19]; 500 g ai/ha): 90 | Soybean plant response rating ([19]; Test C, 125 g ai/ha): 40 | Plant response rating, Horseweed [20, 29]: 90 | Plant response rating, Horseweed [20, 30]: 100 | Plant response rating, Pigweed, Palmer [21, 29]: 90 | Plant response rating, Pigweed, Palmer [21, 30]: 60 | Barnyardgrass plant response rating ([22]; 500 g ai/ha): 100 | Barnyardgrass plant response rating ([22]; Test C, 125 g ai/ha): 70 | Wheat plant response rating ([23]; 500 g ai/ha): 40 | Wheat plant response rating ([23]; Test C, 125 g ai/ha): 20 | Plant response rating, Ragweed [24, 29]: 90 | Plant response rating, Ragweed [24, 30]: 80 | Corn plant response rating ([25]; 500 g ai/ha): 0 | Corn plant response rating ([25]; Test C, 125 g ai/ha): 0 | Kochia plant response rating ([26]; 500 g ai/ha): 100 | Kochia plant response rating ([26]; Test C, 125 g ai/ha): 90 | Plant response rating, Ducksalad (Flood) [27]: 85 | Plant response rating, Blackgrass [28, 29]: 100 | Plant response rating, Blackgrass [28, 30]: 80

COc1ccc(-n2cncn2)cc1C(=O)N1C[C@H](C)Oc2c(Cl)cccc21 [Compound 241]
Plant response rating, Ragweed [1, 31]: 10 | Ragweed plant response rating ([1]; Test C, 125 g ai/ha): 10 | Plant response rating, Foxtail, Green [2, 32]: 90 | Plant response rating, Foxtail, Green [2, 33]: 90 | Plant response rating, Wheat [3, 32]: 50 | Plant response rating, Wheat [3, 33]: 90 | Plant response rating, Blackgrass [4, 31]: 70 | Blackgrass plant response rating ([4]; Test C, 125 g ai/ha): 50 | Plant response rating, Oat, Wild [5, 32]: 60 | Plant response rating, Oat, Wild [5, 33]: 90 | Plant response rating, Corn [6, 32]: 60 | Plant response rating, Corn [6, 33]: 100 | Plant response rating, Oat, Wild [7, 31]: 90 | Oat, Wild plant response rating ([7]; Test C, 125 g ai/ha): 50 | Plant response rating, Barnyardgrass (Flood) [8]: 50 | Plant response rating, Kochia [9, 32]: 20 | Plant response rating, Kochia [9, 33]: 70 | Plant response rating, Ryegrass, Italian [10, 31]: 90 | Ryegrass, Italian plant response rating ([10]; Test C, 125 g ai/ha): 90 | Plant response rating, Galium [11, 32]: 100 | Plant response rating, Galium [11, 33]: 100 | Plant response rating, Ryegrass, Italian [12, 32]: 90 | Plant response rating, Ryegrass, Italian [12, 33]: 100 | Plant response rating, Barnyardgrass [13, 32]: 100 | Plant response rating, Barnyardgrass [13, 33]: 100 | Plant response rating, Soybean [14, 32]: 100 | Plant response rating, Soybean [14, 33]: 100 | Plant response rating, Foxtail, Green [15, 31]: 100 | Foxtail, Green plant response rating ([15]; Test C, 125 g ai/ha): 100 | Plant response rating, Rice (Flood) [16]: 15 | Plant response rating, Sedge, Umbrella (Flood) [17]: 100 | Plant response rating, Pigweed, Palmer [18, 31]: 100 | Pigweed, Palmer plant response rating ([18]; Test C, 125 g ai/ha): 100 | Plant response rating, Soybean [19, 31]: 100 | Soybean plant response rating ([19]; Test C, 125 g ai/ha): 100 | Plant response rating, Horseweed [20, 32]: 50 | Plant response rating, Horseweed [20, 33]: 90 | Plant response rating, Pigweed, Palmer [21, 32]: 70 | Plant response rating, Pigweed, Palmer [21, 33]: 90 | Plant response rating, Barnyardgrass [22, 31]: 100 | Barnyardgrass plant response rating ([22]; Test C, 125 g ai/ha): 90 | Plant response rating, Wheat [23, 31]: 90 | Wheat plant response rating ([23]; Test C, 125 g ai/ha): 60 | Plant response rating, Ragweed [24, 32]: 50 | Plant response rating, Ragweed [24, 33]: 90 | Plant response rating, Corn [25, 31]: 70 | Corn plant response rating ([25]; Test C, 125 g ai/ha): 20 | Plant response rating, Kochia [26, 31]: 80 | Kochia plant response rating ([26]; Test C, 125 g ai/ha): 20 | Plant response rating, Ducksalad (Flood) [27]: 90 | Plant response rating, Blackgrass [28, 32]: 90 | Plant response rating, Blackgrass [28, 33]: 100
